Measurements: the supplement of paper PMC10307832

What was measured:
Experiment in all cases: relative viability (nuclei count vs DMSO), 5 days (fraction); higher = more cells survive
Tipifarnib + Tozasertib = compound: Cn1cncc1[C@@](N)(c1ccc(Cl)cc1)c1ccc2c(c1)c(-c1cccc(Cl)c1)cc(=O)n2C [Tipifarnib] + Cc1cc(Nc2cc(N3CCN(C)CC3)nc(Sc3ccc(NC(=O)C4CC4)cc3)n2)n[nH]1 [Tozasertib] (partner 0.1 µM)
Procedure, shortened: (§1)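 Values are medians from duplicate plates. Each reflects relative viability, defined as the nuclei count of treated wells over that of vehicle wells. Lung cancer cell lines in 1536-well plates were pin-tool dosed one day after seeding with one drug alone or with a fixed anchor-drug dose plus five library-drug doses (not always all listed) in √10 steps, then fixed, stained and imaged at 4× after 5 days.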

Tipifarnib + OSI-027 = compound: Cn1cncc1[C@@](N)(c1ccc(Cl)cc1)c1ccc2c(c1)c(-c1cccc(Cl)c1)cc(=O)n2C [Tipifarnib] + COc1cccc2cc(-c3nc([C@H]4CC[C@H](C(=O)O)CC4)n4ncnc(N)c34)[nH]c12 [OSI-027] (partner 0.5 µM)
Procedure, shortened: as §1

Tipifarnib + Linsitinib = compound: Cn1cncc1[C@@](N)(c1ccc(Cl)cc1)c1ccc2c(c1)c(-c1cccc(Cl)c1)cc(=O)n2C [Tipifarnib] + C[C@]1(O)C[C@@H](c2nc(-c3ccc4ccc(-c5ccccc5)nc4c3)c3c(N)nccn32)C1 [Linsitinib] (partner 1 µM)
Procedure, shortened: as §1

Tipifarnib + Crizotinib = compound: Cn1cncc1[C@@](N)(c1ccc(Cl)cc1)c1ccc2c(c1)c(-c1cccc(Cl)c1)cc(=O)n2C [Tipifarnib] + C[C@@H](Oc1cc(-c2cnn(C3CCNCC3)c2)cnc1N)c1c(Cl)ccc(F)c1Cl [Crizotinib] (partner 1 µM)
Procedure, shortened: as §1

Cell Line | relative viability (Tipifarnib + Tozasertib; first compound 0.01 µM) | relative viability (Tipifarnib + Tozasertib; first compound 0.03162 µM) | relative viability (Tipifarnib + Tozasertib; first compound 0.1 µM) | relative viability (Tipifarnib + Tozasertib; first compound 0.3162 µM) | relative viability (Tipifarnib + Tozasertib; first compound 1 µM) | relative viability (Tipifarnib + OSI-027; first compound 0.01 µM) | relative viability (Tipifarnib + OSI-027; first compound 0.03162 µM) | relative viability (Tipifarnib + OSI-027; first compound 0.1 µM) | relative viability (Tipifarnib + OSI-027; first compound 0.3162 µM) | relative viability (Tipifarnib + OSI-027; first compound 1 µM) | relative viability (Tipifarnib + Linsitinib; first compound 0.01 µM) | relative viability (Tipifarnib + Linsitinib; first compound 0.03162 µM) | relative viability (Tipifarnib + Linsitinib; first compound 0.1 µM) | relative viability (Tipifarnib + Linsitinib; first compound 0.3162 µM) | relative viability (Tipifarnib + Linsitinib; first compound 1 µM) | relative viability (Tipifarnib + Crizotinib; first compound 0.01 µM) | relative viability (Tipifarnib + Crizotinib; first compound 0.03162 µM) | relative viability (Tipifarnib + Crizotinib; first compound 0.1 µM) | relative viability (Tipifarnib + Crizotinib; first compound 0.3162 µM) | relative viability (Tipifarnib + Crizotinib; first compound 1 µM)
NCI-H441 | 0.671 | 0.554 | 0.528 | 0.356 | 0.439 | 0.791 | 0.255 | 0.393 | 0.326 | 0.272 | 0.67 | 0.455 | 0.413 | 0.402 | 0.33 | 0.723 | 0.465 | 0.492 | 0.346 | 0.277
NCI-H1793 | 0.286 | 0.284 | 0.248 | 0.247 | 0.265 | 0.254 | 0.326 | 0.204 | 0.215 | 0.216 | 0.983 | 0.577 | 0.737 | 0.751 | 0.576 | – | – | – | – | –
NCI-H23 | 0.346 | 0.371 | 0.384 | 0.253 | 0.259 | 0.583 | 0.384 | 0.342 | 0.29 | 0.26 | 0.747 | 0.573 | 0.44 | 0.331 | 0.39 | 0.579 | 0.491 | 0.386 | 0.311 | 0.249
HARA | 0.123 | 0.0922 | 0.102 | 0.0898 | 0.0758 | 0.618 | 0.408 | 0.298 | 0.137 | 0.147 | 1.08 | 0.925 | 0.956 | 0.94 | 0.87 | 1.07 | 0.917 | 1 | 1.01 | 1.02
NCI-H1792 | – | – | – | – | – | 0.9 | 0.76 | 0.548 | 0.32 | 0.357 | 0.436 | 0.453 | 0.257 | 0.207 | 0.233 | 1.02 | 0.888 | 0.742 | 0.54 | 0.438
NCI-H1703 | – | – | – | – | – | – | – | – | – | – | 0.84 | 0.323 | 0.145 | 0.274 | 0.373 | 0.311 | 0.291 | 0.171 | 0.155 | 0.196
NCI-H2342 | 0.472 | 0.476 | 0.43 | 0.371 | 0.383 | 0.634 | 0.542 | 0.631 | 0.564 | 0.448 | – | – | – | – | – | – | – | – | – | –
CAL-12T | 0.277 | 0.278 | 0.241 | 0.188 | 0.246 | 0.565 | 0.358 | 0.37 | 0.272 | 0.232 | 0.812 | 0.606 | 0.616 | 0.387 | 0.403 | 0.567 | 0.387 | 0.334 | 0.173 | 0.228
NCI-H727 | 0.809 | 0.598 | 0.624 | 0.608 | 0.444 | 0.599 | 0.535 | 0.459 | 0.477 | 0.427 | 0.285 | 0.334 | 0.321 | 0.3 | 0.259 | 0.958 | 0.838 | 0.746 | 0.695 | 0.675
NCI-H2085 | 0.723 | 0.663 | 0.468 | 0.437 | 0.617 | 0.738 | 0.377 | 0.397 | 0.367 | 0.538 | 0.923 | 0.651 | 0.514 | 0.404 | 0.479 | 0.685 | 0.446 | 0.433 | 0.414 | 0.469
NCI-H1395 | 0.659 | 0.681 | 0.567 | 0.498 | 0.556 | 0.622 | 0.545 | 0.494 | 0.517 | 0.413 | 1.43 | 1.14 | 0.888 | 0.869 | 0.783 | – | – | – | – | –
NCI-H1648 | 0.368 | 0.479 | 0.285 | 0.483 | 0.352 | 0.268 | 0.258 | 0.271 | 0.307 | 0.259 | – | – | – | – | – | – | – | – | – | –
NCI-H460 | 0.625 | 0.51 | 0.216 | 0.15 | 0.0888 | 0.669 | 0.626 | 0.257 | 0.209 | 0.0157 | 0.841 | 0.639 | 0.173 | 0.146 | 0.0526 | 1.12 | 0.249 | 0.133 | 0.0704 | 0.0599
A549 | – | – | – | – | – | – | – | – | – | – | 0.707 | 0.596 | 0.49 | 0.325 | 0.233 | 0.499 | 0.313 | 0.238 | 0.155 | 0.121
IA-LM | – | – | – | – | – | – | – | – | – | – | 0.329 | 0.285 | 0.332 | 0.288 | 0.189 | 0.533 | 0.548 | 0.291 | 0.272 | 0.263
EKVX | 0.447 | 0.331 | 0.397 | 0.348 | 0.297 | 0.728 | 0.7 | 0.699 | 0.516 | 0.39 | 1.06 | 1.11 | 0.972 | 0.755 | 0.657 | 0.932 | 0.936 | 0.733 | 0.618 | 0.581
